Source: patent publication US10350211B2, “Bumped kinase inhibitor compositions and methods for treating cancer” (UNIVERSITY OF WASHINGTON, priority 2015, dated 2019)

Key:
MCF7 cell = experiment: Breast cancer cell proliferation, MCF7; type: cell-based; conditions: 72 hours; tested at 0.2, 2, and 20 μM, concentration of the values not given
Method: (§1) MCF7 and MDA231 cell lines were plated at 2000 and 1000 cells/well, respectively. 24 hours later, BKI inhibitor of the disclosure was added to each well at concentrations of 0.2, 2, and 20 μM. After 72 hours, […] was used to measure cell growth.

MDA231 cell = experiment: Breast cancer cell proliferation, MDA231; type: cell-based; conditions: 72 hours; tested at 0.2, 2, and 20 μM, concentration of the values not given
Method: as §1

[1] = cited from earlier work
[2] = therapeutic levels cannot be obtained in vivo; cited from earlier work
PKD = conditions: cited from earlier work
[3] = system: other human kinases beyond PKDs, including mutated Src; conditions: cited from earlier work
[4] = system: prostate cancer AR− as well as AR+ lines; conditions: cited from earlier work
PCa tumor = conditions: 60 mg/kg, 2× daily; cited from earlier work

Structure (SMILES) | MCF7 cell inhibition (%) (MCF7 cell) | MDA231 cell inhibition (%) (MDA231 cell) | other results
CCOc1ccc2cc(-c3nn(CC4CCN(C)CC4)c4ncnc(N)c34)ccc2c1 [Example 128] | 40 | 50 | 
CC(C)(C)n1nc(-c2cccc3ccccc23)c2c(N)ncnc21 [Example 1NA-PP1] |  |  | solubility [1]: low solubility; metabolism [2]: quickly metabolized; PKD kinase activity (PKD): potently blocked; off-target kinases [3]: target other human kinases beyond PKDs, including mutated Src; prostate cancer cell growth/proliferation [4]: potently blocked
CN1CCC(Cn2nc(-c3ccc4nc(OCC(F)(F)F)ccc4c3)c3c(N)ncnc32)CC1 [Example 16, 1-((1-Methylpiperidin-4-yl)methyl)-3-(2-(2,2,2-trifluoroethoxy)quinolin-6-yl)-1H-pyrazolo[3,4-d]pyrimidin-4-amine] | 50 | 90 | 
CC(C)(O)Cn1nc(-c2ccc3nc(OC4CC4)ccc3c2)c2c(N)ncnc21 [Example 25, 1-(4-Amino-3-(2-cyclopropoxyquinolin-6-yl)-1H-pyrazolo[3,4-d]pyrimidin-1-yl)-2-methylpropan-2-ol] | 30 | 20 | 
CCCOc1ccc2cc(-c3nn(CC4CCNCC4)c4ncnc(N)c34)ccc2c1 [Example 129, 1-(piperidin-4-ylmethyl)-3-(6-propoxynaphthalen-2-yl)-1H-pyrazolo[3,4-d]pyrimidin-4-amine] | 75 | 90 | 
CCOc1ccc2cc(-c3nn(CC4CCNCC4)c4ncnc(N)c34)ccc2n1 [Example 127, 3-(2-ethoxyquinolin-6-yl)-1-(piperidin-4-ylmethyl)-1H-pyrazolo[3,4-d]pyrimidin-4-amine] | 50 | 0 | 
CC(C)(O)Cn1cc(-c2ccc3nc(OC4CC4)ccc3c2)c2c(N)ncnc21 [Example 58, 1-(4-amino-5-(2-cyclopropoxyquinolin-6-yl)-7H-pyrrolo[2,3-d]pyrimidin-7-yl)-2-methylpropan-2-ol] | 50 | 10 | 
CCOc1ccc2cc(-c3nn(C4CCNCC4)c4ncnc(N)c34)ccc2c1 [Example 111, 3-(6-ethoxynaphthalen-2-yl)-1-(piperidin-4-yl)-1H-pyrazolo[3,4-d]pyrimidin-4-amine] | 70 | 90 | 
CC(C)(C)n1nc(Cc2cccc3ccccc23)c2c(N)ncnc21 [Example 1NM-PP1] |  |  | solubility [1]: low solubility; metabolism [2]: quickly metabolized; PKD kinase activity (PKD): potently blocked; off-target kinases [3]: target other human kinases beyond PKDs, including mutated Src; prostate cancer cell growth/proliferation [4]: potently blocked
CC(C)Oc1ccc2cc(-c3nn(CC4CCNCC4)c4ncnc(N)c34)ccc2c1 [Example 130, 3-(6-isopropoxynaphthalen-2-yl)-1-(piperidin-4-ylmethyl)-1H-pyrazolo[3,4-d]pyrimidin-4-amine] | 30 | 80 | 
CCOc1ccc2cc(-c3nc(CC4CCNCC4)n4ccnc(N)c34)ccc2c1 [Example 120, 1-(6-ethoxynaphthalen-2-yl)-3-(piperidin-4-ylmethyl)imidazo[1,5-a]pyrazin-8-amine] | 30 | 50 | 
CCOc1ccc2cc(-c3nn(CC4CCN(C)CC4)c4ncnc(N)c34)ccc2n1 [Example 15, 3-(2-Ethoxyquinolin-6-yl)-1-((1-methylpiperidin-4-yl)methyl)-1H-pyrazolo[3,4-d]pyrimidin-4-amine] | 40 | 30 | 
CCOc1ccc2cc(-c3nn(C(C)C)c4ncnc(N)c34)ccc2n1 [Example 110, 3-(2-ethoxyquinolin-6-yl)-1-isopropyl-1H-pyrazolo[3,4-d]pyrimidin-4-amine] | 30 | 10 | 
CCOc1ccc2ccc(-c3nn(CC4CCNCC4)c4ncnc(N)c34)cc2c1 [Example 51, 3-(7-ethoxynaphthalen-2-yl)-1-(piperidin-4-ylmethyl)-1H-pyrazolo[3,4-d]pyrimidin-4-amine] | 97 | 95 | 
Nc1ncnc2c1c(-c1ccc3nc(OC4CC4)ccc3c1)nn2CC1(CO)COC1 [Example 67, (3-((4-amino-3-(2-cyclopropoxyquinolin-6-yl)-1H-pyrazolo[3,4-d]pyrimidin-1-yl)methyl)oxetan-3-yl)methanol] | 40 | 0 | 
Fc1ccc(Cl)cc1-c1nc(Nc2ccncc2)c2nccnc2n1 [SD-208] |  |  | PCa tumor growth (PCa tumor): decrease in PCa tumor growth; PKD kinase activity (PKD): potently blocked; prostate cancer cell growth/proliferation [4]: potently blocked
CCOc1ccc2cc(-c3nn(C4CCN(CC)CC4)c4ncnc(N)c34)ccc2c1 [Example 109, 3-(6-ethoxynaphthalen-2-yl)-1-(1-ethylpiperidin-4-yl)-1H-pyrazolo[3,4-d]pyrimidin-4-amine] | 50 | 50 | 
CN1CCC(Cn2nc(-c3ccc4cc(OC5CC5)ccc4c3)c3c(N)ncnc32)CC1 [Example 4, 3-(6-Cyclopropoxynaphthalen-2-yl)-1-((1-methylpiperidin-4-yl)methyl)-1H-pyrazolo[3,4-d]pyrimidin-4-amine] | 50 | 60 | 
